From patent US20220296669A1, “NOVEL COMPOSITIONS AND USES THEREOF” (priority 2019, published 2022) come the findings set out here.

Assay [1] in a line: 131-iodine coating efficiency (binding) assay on titanium surfaces with/without PLL precoating. As to conditions: with PLL as intermediate layer vs without PLL / controls. As to the method: Materials—Titanium discs with a diameter and thickness of 5 mm and 0.25 mm, respectively, and with a maximum average roughness (Ra) of 0.8 μm, were punched out from a commercially available titanium foil (Alfa Aesar GmbH & Co. KG, Karlsruhe, Germany). ε-poly-L-lysine hydrobromide (PLL, 30,000-150,000 g/mol) was purchased from Sigma-Aldrich, St. Louis, USA. Collagen VI and its derived peptides were prepared as described in [18]. LL-37 was a kind gift of Dr. Artur Schmidtchen, University of Lund. NAT26, HKH20, GGL27 were kind gifts of Dr. Inga-Maria Frick, University of Lund. α defensins 3-6 and β defensins 1-4 were kind gifts of Dr. Arne Egesten, University of Lund. Proteins were radiolabeled with 131-iodine according to standard protocols prior to coating assays on collagen scaffold surfaces.
Biomaterial surface coating with PLL—Titanium discs were degreased with chloroform and 97% ethanol, followed by rinsing with distilled water, and air-drying at room temperature. Subsequently, prior to collagen coating, 150 μl poly-L-lysine hydrobromide (70,000-150,000 g/mol, Sigma-Aldrich, St. Louis, USA, 0.2 mg/ml) were applied on desired titanium discs by incubation at 60° C. for 2 hours. Afterwards, the titanium was washed twice in distilled water to remove unbound PLL, air-dried and stored at room temperature.
(§1) Biomaterial surface coating with bioactive collagen VI molecules—Titanium discs, after prior treatment with PLL, were put into 24-well cell culture plates (TPP, Trasadingen, Switzerland). They were coated by incubation with 150 μl collagen type VI peptides (concentration 3 μM), at 4° C. for 2 hours, followed by rinsing with distilled water and air-drying. The coating efficiencies of the different biomolecules were assessed by determining the ratio between bound and free 131-iodine radioactivity associated with titanium discs by determining radioactivity as cpm values in a γ-counter.

The subject of the next assay is collagen I scaffolds. Briefly: 131-iodine coating efficiency (binding) assay on collagen I scaffolds with/without PLL precoating. As to conditions: with PLL as intermediate layer vs without PLL / controls, 1 mm thin and 2 mm thick scaffolds. As to the method: Materials—MDS Collagen was obtained from MedSkin Solutions Dr. Suwelack A G (MDS). 1 mm thickness refers to thin, and 2 mm thickness refers to thick collagen scaffold, respectively. c-poly-L-lysine hydrobromide (PLL, 30 000-150 000 g/mol) was purchased from Sigma-Aldrich, St. Louis, USA. Collagen VI and its derived peptides were prepared as described in [18]. LL-37 was a kind gift of Dr. Artur Schmidtchen, University of Lund. NAT26, HKH20, GGL27 were kind gifts of Dr. Inga-Maria Frick, University of Lund. α defensins 3-6 and β defensins 1-4 were kind gifts of Dr. Arne Egesten, University of Lund. Proteins were radiolabeled with 131-iodine according to standard protocols prior to coating assays on collagen scaffold surfaces.
Biomaterial surface coating with PLL—collagen scaffold discs with a diameter of 5 mm and thickness of 2 mm (thick scaffold) and 1 mm (thin scaffold), respectively, were punched out from a larger sheet (approximately 10 cm×10 cm). Prior to collagen coating, 150 μl poly-L-lysine hydrobromide solution (0.2 mg/ml) were applied on the collagen scaffold discs by incubation at 60° C. for 2 h. Afterwards the discs were washed twice in distilled water to remove unbound PLL, air-dried and stored at room temperature.
as §1, with “molecules—collagen scaffold” for “molecules—Titanium”, “μl bovine collagen VI microfibrils (concentration 15 μM), or with 150 μl” for “μl”, “μM), or with […] LL-37, NAT26, HKH20, GGL27, α defensins 3-6 and β defensins 1-4” for “μM),”, “h,” for “hours,”, “collagen scaffolds” for “titanium discs”

Another assay relates to Pseudomonas aeruginosa. Briefly: Gram-negative bacterial killing efficiency on coated surfaces, scanning electron microscopy. The format is cell-based. As to conditions: with PLL as intermediate layer vs without PLL and other parts of collagen VI; for killing of Pseudomonas aeruginosa on collagen I scaffolds: collagen I scaffolds 1 mm / 2 mm, FIG. 9; for killing of Pseudomonas aeruginosa on titanium surfaces: titanium surface, FIG. 5. On the procedure:
(§2) Collagen I scaffolds and titanium surfaces were coated with collagen VI microfibrils, each of collagen VI alpha 1-3 chains and the bioactive collagen VI peptides GVR28, FYL25, FFL25, VTT30, and SFV33 as described in Examples 1 and 2 above, respectively.
(§3) Killing efficiency of the gram-negative Pseudomonas aeruginosa bacteria and the gram-positive Staphylococcus aureus were assessed by scanning electron microscopy. For killing efficiency and scanning electron microscopy experiments, titanium scaffold discs with a size of 5 mm and a thickness of 0.25 mm, and collagen I scaffold discs with a size of 5 mm and a thickness of 1 mm (thin scaffold) or 2 mm (thick scaffold), respectively, were punched out and coated with PLL as described in Examples 1 and 2 above. They were subsequently incubated with 500 μL of bacterial suspension (5×10^8 cfu/ml bacteria) and incubated for 2 hours at 37° C. in a humid atmosphere containing 5% CO2.
(§4) The discs were then prepared for scanning electron microscopy. In short, samples were incubated overnight at 4° C. with fixation buffer (0.15M sodium cacodylate, pH 7.4, containing 2.5% v/v glutaraldehyde) and subsequently washed with cacodylate buffer (0.15M sodium cacodylate, pH 7.4), followed by a standard dehydration series with ethanol-water mixtures. Specimens were then dried in liquid CO2, using ethanol as an intermediate solvent. Samples were mounted on aluminium discs and coated with 20 nm gold/palladium. Finally, samples were investigated with an XL 30 FEG scanning electron microscope and images were processed by AnalySIS ITEM software. Viable and non-viable bacteria were directly identified and quantified under in the scanning electron microscope due to their structural differences.

The test system of assay [2] is Human Dermal Fibroblasts, adult (HDFa). Briefly: Fibroblast adherence on coated surfaces, scanning electron microscopy. The format is cell-based. As to conditions: with PLL as intermediate layer vs without PLL and other parts of collagen VI, measured in cells/mm^2; for fibroblast adherence on collagen I scaffolds: FIG. 11; for fibroblast adherence on titanium surfaces: titanium surface, FIG. 7. As to the method: (§5) Collagen I scaffolds and titanium surfaces were coated with collagen VI microfibrils, each of collagen VI alpha 1-3 chains and the bioactive collagen VI peptides GVR28, FYL25, FFL25, VTT30, and SFV33 as described in Examples 1 and 2 above.
(§6) Adherence of fibroblasts or keratinocytes was assessed by scanning electron microscopy.
(§7) Cells and culture conditions—Keratinocytes (Human Epidermal Keratinocytes, adult (HEKa), C-005-5C, Gibco) and fibroblasts (Human Dermal Fibroblasts, adult (HDFa), C0135C, Gibco) were purchased from Thermo Fisher Scientific, Waltham, USA. Cryopreserved cells were thawed according to the manufacturer's protocol and seeded on three 75 mL tissue culture flasks, each containing 15 mL of keratinocyte basal medium (KBM; KBM Gold, Lonza Group AG, Basel, Switzerland). The medium was supplemented with transferrin, recombinant human epidermal growth factor (rhEGF), bovine pituitary extract (BPE), antibiotics (Gentamycin: GA-1000), insulin, epinephrine and hydrocortisone (PeproTech, New Jersey, USA). For fibroblasts, complete growth medium consisting of Dulbecco's modified eagle medium (D-MEM) with 100 mM sodium pyruvate (PAA Laboratories, Pasching, Austria), supplemented with 10% fetal bovine serum (FBS) (PAA Laboratories, Pasching, Austria) and 2 mM L-glutamine (Invitrogen, Carlsbad, USA), was used. Medium was changed every day and substituted with additional rhEGF at a final dilution of 1:1000. The cells were incubated for seven days until they reached confluency. The cells were harvested by trypsinization (TrypLE™ Select (1x), Life Technologies Corporation, Carlsbad, USA) and transferred into freezing medium, containing 1% BSA (Sigma Aldrich, St. Louis, USA) and 10% DMSO (Sigma-Aldrich, St. Louis, USA). 1 mL aliquots of the cell suspension were transferred into cryotubes. The cryotubes were transferred to the freezer at −80° C. for 24 hours and then finally stored in liquid nitrogen until further use.
(§8) Cell attachment—Cells were gently thawed and counted in a hemocytometer using trypan blue (Fisher Scientific, Waltham, USA) to estimate the number of live/dead cells. They were finally diluted in appropriate media to final cell concentrations of 16700 viable cells/mL. 300 μL cell solution were added on top of punched out titanium or collagen I scaffold samples, followed by incubation at 37° C. for 1 hour. Growth medium was removed and the cells were gently washed twice with PBS. The cells were then fixed by the addition of 4% formaldehyde in PBS, followed by incubation at 4° C. for 20 minutes. Finally, cells were rinsed three times in PBS and stored in 3 mL PBS until further evaluation by scanning electron microscopy.

The test system of assay [3] is Human Epidermal Keratinocytes, adult (HEKa). The assay is described as follows: Keratinocyte adherence on coated surfaces, scanning electron microscopy. In kind it is cell-based. As to conditions: with PLL as intermediate layer vs without PLL and other parts of collagen VI; for keratinocyte adherence on collagen I scaffolds: FIG. 12; for keratinocyte adherence on titanium surfaces: titanium surface, FIG. 8. On the procedure:
as §5, §6, §7, §8

For a further assay, the system named is Staphylococcus aureus. Briefly: Gram-positive bacterial killing efficiency on coated surfaces, scanning electron microscopy. The format is cell-based. As to conditions: with PLL as intermediate layer vs without PLL and other parts of collagen VI; for killing of Staphylococcus aureus on collagen I scaffolds: collagen I scaffolds 1 mm / 2 mm, FIG. 10; for killing of Staphylococcus aureus on titanium surfaces: titanium surface, FIG. 6. On the procedure:
as §2, §3, §4

The mark [4] stands for this setting: listed as collagen type VI alpha-3 chain.

“FYLKTYRSQAPVLDAIRRLRLRGGS (FYL25 peptide)”: the “coating efficiency (binding) on titanium surfaces” value in assay [1] is “superior coating”. Besides, in the assay with collagen I scaffolds, the “coating efficiency (binding) on collagen I scaffolds” value is listed as “superior coating”.

Consider “collagen VI alpha-3 chain: alpha-3 polypeptide chain of collagen type VI (UniProt P12111)”, for which, in the assay with Pseudomonas aeruginosa, the “killing of Pseudomonas aeruginosa on collagen I scaffolds” value was “considerably enhanced” and the “killing of Pseudomonas aeruginosa on titanium surfaces” value is “considerably enhanced”. Besides, in assay [2], the “fibroblast adherence on collagen I scaffolds” value was “considerably enhanced” and the “fibroblast adherence on titanium surfaces” value is reported as “considerably enhanced”. The “coating efficiency (binding) on titanium surfaces” value in assay [1] was “considerably enhanced”. In addition, the “coating efficiency (binding) on titanium surfaces” value in assay [1] (setting [4]) was “superior coating”. In assay [3], the “keratinocyte adherence on collagen I scaffolds” value is on record as “considerably enhanced” and the “keratinocyte adherence on titanium surfaces” value is on record as “considerably enhanced”. Also, in the assay on collagen I scaffolds, the “coating efficiency (binding) on collagen I scaffolds” value was “considerably enhanced”. Also, the “coating efficiency (binding) on collagen I scaffolds” value in the assay with collagen I scaffolds (setting [4]) is reported as “superior coating”. Besides, in the assay on Staphylococcus aureus, the “killing of Staphylococcus aureus on collagen I scaffolds” value is given as “considerably enhanced” and the “killing of Staphylococcus aureus on titanium surfaces” value is on record as “considerably enhanced”.

Consider “VTTEIRFADSKRKSVLLDKIKNLQVALTSK (VTT30 peptide)”, for which, in assay [2], the “fibroblast adherence on collagen I scaffolds” value was “considerably enhanced” and the “fibroblast adherence on titanium surfaces” value is “considerably enhanced”. Also, in assay [1], the “coating efficiency (binding) on titanium surfaces” value is “superior coating”. In addition, in assay [3], the “keratinocyte adherence on collagen I scaffolds” value is “considerably enhanced” and the “keratinocyte adherence on titanium surfaces” value is given as “considerably enhanced”. Besides, in the assay with collagen I scaffolds, the “coating efficiency (binding) on collagen I scaffolds” value was “superior coating”.

With “FFLKDFSTKRQIIDAINKVVYKGGR (FFL25 peptide)”, in assay [2], the “fibroblast adherence on collagen I scaffolds” value was “considerably enhanced” and the “fibroblast adherence on titanium surfaces” value is reported as “considerably enhanced”. In addition, in assay [1], the “coating efficiency (binding) on titanium surfaces” value is given as “superior coating”. Besides, in assay [3], the “keratinocyte adherence on collagen I scaffolds” value was “considerably enhanced” and the “keratinocyte adherence on titanium surfaces” value is listed as “considerably enhanced”. Moreover, the “coating efficiency (binding) on collagen I scaffolds” value in the assay on collagen I scaffolds is given as “superior coating”.

Turning to “SFVARNTFKRVRNGFLMRKVAVFFSNTPTRASP (SFV33 peptide)”, in the assay on Pseudomonas aeruginosa, the “killing of Pseudomonas aeruginosa on collagen I scaffolds” value is recorded as “considerably enhanced” and the “killing of Pseudomonas aeruginosa on titanium surfaces” value is listed as “considerably enhanced”. Moreover, the “coating efficiency (binding) on titanium surfaces” value in assay [1] is “superior coating”. The “coating efficiency (binding) on collagen I scaffolds” value in the assay with collagen I scaffolds is on record as “superior coating”. For the same substance, in the assay on Staphylococcus aureus, the “killing of Staphylococcus aureus on collagen I scaffolds” value is given as “considerably enhanced” and the “killing of Staphylococcus aureus on titanium surfaces” value is recorded as “considerably enhanced”.

As to “GVRPDGFAHIRDFVSRIVRRLNIGPSKV (GVR28 peptide)”, in assay [2], the “fibroblast adherence on collagen I scaffolds” value was “considerably enhanced” and the “fibroblast adherence on titanium surfaces” value is “considerably enhanced”. Further, the “coating efficiency (binding) on titanium surfaces” value in assay [1] is “superior coating”. Also, in assay [3], the “keratinocyte adherence on collagen I scaffolds” value was “considerably enhanced” and the “keratinocyte adherence on titanium surfaces” value was “considerably enhanced”. In the assay on collagen I scaffolds, the “coating efficiency (binding) on collagen I scaffolds” value is listed as “superior coating”.
